Where a SMILES comes first, the peptide text is derived from it. Bridges are numbered along the chain shown (N, C = ends). The star is where a group is joined. X3 = O=C(CCCCCOP(=O)(O)OC1CCC(c2ccccc2)(c2ccccc2)CC1)*; X4 = O=C(CCC(=O)*)NS(=O)(=O)c1ccc2ccccc2c1; X2 = O=C(CCCCCOP(=O)(O)Oc1ccc2ccccc2c1)*; X1 = O=C(CCCCCOP(=O)(O)OCCCCCc1ccccc1)*
Target: Albumin (Oryctolagus cuniculus) (UniProt P49065)
Test: Compound was measured for its retention time in rabbit serum albumin;where k`=tt-t0/t0; tt=retention time of compound and t0=retention time of DMSO

Chain of Albumin (Oryctolagus cuniculus) (P49065 whole entry, looked up): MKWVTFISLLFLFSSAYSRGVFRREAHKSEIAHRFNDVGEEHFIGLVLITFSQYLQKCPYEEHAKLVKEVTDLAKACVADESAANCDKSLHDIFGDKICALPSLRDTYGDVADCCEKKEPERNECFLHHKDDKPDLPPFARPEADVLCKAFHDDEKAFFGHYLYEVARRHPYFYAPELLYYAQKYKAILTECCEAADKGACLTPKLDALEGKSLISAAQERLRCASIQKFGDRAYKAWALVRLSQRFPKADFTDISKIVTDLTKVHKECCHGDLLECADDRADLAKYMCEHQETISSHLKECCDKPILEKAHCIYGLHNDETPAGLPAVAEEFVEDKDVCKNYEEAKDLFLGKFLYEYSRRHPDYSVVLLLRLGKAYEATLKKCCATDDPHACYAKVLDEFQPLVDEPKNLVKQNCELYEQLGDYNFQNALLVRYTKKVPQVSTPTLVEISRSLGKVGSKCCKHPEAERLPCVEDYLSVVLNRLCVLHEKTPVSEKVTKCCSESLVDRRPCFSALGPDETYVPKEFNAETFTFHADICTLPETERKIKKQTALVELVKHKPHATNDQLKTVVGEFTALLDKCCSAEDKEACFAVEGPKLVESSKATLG

SMILES	k'/k'+1
CC[C@H](C)[C@@H]1NC(=O)[C@H](CCCN=C(N)N)NC(=O)[C@@H]2CCCN2C(=O)[C@H](CC(N)=O)NC(=O)[C@H](CC(=O)O)NC(=O)[C@@H](NC(=O)[C@H](CC(C)C)NC(=O)[C@H](C)NC(=O)CCC(=O)NS(=O)(=O)c2ccc3ccccc3c2)CSSC[C@@H](C(=O)N[C@@H](CCC(N)=O)C(=O)N[C@@H](Cc2ccccc2)C(=O)N[C@H](C(=O)N[C@@H](CCC(=O)O)C(=O)NCC(N)=O)C(C)C)NC(=O)[C@H](Cc2ccc(O)cc2)NC(=O)[C@H](Cc2c[nH]c3ccccc23)NC(=O)[C@H](CCCN=C(N)N)NC(=O)[C@H](CC(=O)O)NC1=O (X4-ALCDNPRIDRWYCQFVEG-NH2; disulfide 3-13)	0.98
CC[C@H](C)[C@@H]1NC(=O)[C@H](CCCN=C(N)N)NC(=O)[C@@H]2CCCN2C(=O)[C@H](CC(N)=O)NC(=O)[C@H](CC(=O)O)NC(=O)[C@@H](NC(=O)[C@H](CC(C)C)NC(=O)[C@H](C)NC(C)=O)CSSC[C@@H](C(=O)N[C@@H](CCC(N)=O)C(=O)N[C@@H](Cc2ccccc2)C(=O)N[C@H](C(=O)N[C@@H](CCC(=O)O)C(=O)NCC(N)=O)C(C)C)NC(=O)[C@H](Cc2ccc(O)cc2)NC(=O)[C@H](Cc2c[nH]c3ccccc23)NC(=O)[C@H](CCCN=C(N)N)NC(=O)[C@H](CC(=O)O)NC1=O (Ac-ALCDNPRIDRWYCQFVEG-NH2; disulfide 3-13)	0.39
CC[C@H](C)[C@@H]1NC(=O)[C@H](CCCN=C(N)N)NC(=O)[C@@H]2CCCN2C(=O)[C@H](CC(N)=O)NC(=O)[C@H](CC(=O)O)NC(=O)[C@@H](NC(=O)[C@H](CC(C)C)NC(=O)[C@H](C)NC(=O)CCCCCOP(=O)(O)OC2CCC(c3ccccc3)(c3ccccc3)CC2)CSSC[C@@H](C(=O)N[C@@H](CCC(N)=O)C(=O)N[C@@H](Cc2ccccc2)C(=O)N[C@H](C(=O)N[C@@H](CCC(=O)O)C(=O)NCC(N)=O)C(C)C)NC(=O)[C@H](Cc2ccc(O)cc2)NC(=O)[C@H](Cc2c[nH]c3ccccc23)NC(=O)[C@H](CCCN=C(N)N)NC(=O)[C@H](CC(=O)O)NC1=O (X3-ALCDNPRIDRWYCQFVEG-NH2; disulfide 3-13)	0.97
CC[C@H](C)[C@@H]1NC(=O)[C@H](CCCN=C(N)N)NC(=O)[C@@H]2CCCN2C(=O)[C@H](CC(N)=O)NC(=O)[C@H](CC(=O)O)NC(=O)[C@@H](NC(=O)[C@H](CC(C)C)NC(=O)[C@H](C)NC(=O)CCCCCOP(=O)(O)Oc2ccc3ccccc3c2)CSSC[C@@H](C(=O)N[C@@H](CCC(N)=O)C(=O)N[C@@H](Cc2ccccc2)C(=O)N[C@H](C(=O)N[C@@H](CCC(=O)O)C(=O)NCC(N)=O)C(C)C)NC(=O)[C@H](Cc2ccc(O)cc2)NC(=O)[C@H](Cc2c[nH]c3ccccc23)NC(=O)[C@H](CCCN=C(N)N)NC(=O)[C@H](CC(=O)O)NC1=O (X2-ALCDNPRIDRWYCQFVEG-NH2; disulfide 3-13)	0.97
CC[C@H](C)[C@@H]1NC(=O)[C@H](CCCN=C(N)N)NC(=O)[C@@H]2CCCN2C(=O)[C@H](CC(N)=O)NC(=O)[C@H](CC(=O)O)NC(=O)[C@@H](NC(=O)[C@H](CC(C)C)NC(=O)[C@H](C)NC(=O)CCCCCOP(=O)(O)OCCCCCc2ccccc2)CSSC[C@@H](C(=O)N[C@@H](CCC(N)=O)C(=O)N[C@@H](Cc2ccccc2)C(=O)N[C@H](C(=O)N[C@@H](CCC(=O)O)C(=O)NCC(N)=O)C(C)C)NC(=O)[C@H](Cc2ccc(O)cc2)NC(=O)[C@H](Cc2c[nH]c3ccccc23)NC(=O)[C@H](CCCN=C(N)N)NC(=O)[C@H](CC(=O)O)NC1=O (X1-ALCDNPRIDRWYCQFVEG-NH2; disulfide 3-13)	0.98

Source: ChEMBL document CHEMBL1136423, “Phosphate ester serum albumin affinity tags greatly improve peptide half-life in vivo” (Bioorg Med Chem Lett, 2003)
